Drawing on US20250197358A1, “PESTICIDALLY ACTIVE THIOSEMICARBAZONE COMPOUNDS” (BASF SE, priority 2022, published 2025), this text covers mortality for two molecules.

In general, mortality refers to the percentage killed.

What all share (assay): whole plant or invertebrate
What all share (assay type): in vivo

Experiment [1] deals with southern armyworm (Spodoptera eridania). As to conditions: in Phaseolus lunatus, 96 h, 2nd instar larvae, 4 days after treatment, read-out: mortality in comparison with untreated controls. The method, then:
The 10,000 ppm solution was serially diluted in 100% cyclohexanone to make interim solutions. These served as stock solutions for which final dilutions were made by the Tecan in 50% acetone:50% water (v/v) into 10 or 20 ml glass vials. A nonionic surfactant (Kinetic®) was included in the solution at a volume of 0.01% (v/v). The vials were then inserted into an automated electrostatic sprayer equipped with an atomizing nozzle for application to plants/insects.
Lima bean plants (variety Sieva) were grown 2 plants to a pot and selected for treatment at the 1st true leaf stage. Test solutions were sprayed onto the foliage by an automated electrostatic plant sprayer equipped with an atomizing spray nozzle. The plants were dried in the sprayer fume hood and then removed from the sprayer. Each pot was placed into perforated plastic bags with a zip closure. About 10 to 11 armyworm larvae were placed into the bag and the bags zipped closed. Test plants were maintained in a growth room at about 25° C. and about 20-40% relative humidity for 4 days, avoiding direct exposure to fluorescent light (24 hour photoperiod) to prevent trapping of heat inside the bags. Mortality and reduced feeding were assessed 4 days after treatment, compared to untreated control plants.

The subject of experiment [2] is orchid thrips (Dichromothrips corbetti). As to conditions: adult thrips, 72 hours after treatment, read-out: mortality in comparison with untreated controls. The method, then:
Dichromothrips corbetti adults used for bioassay were obtained from a colony maintained continuously under laboratory conditions. For testing purposes, the test compound is diluted in a 1:1 mixture of acetone:water (vol:vol), plus Kinetic® HV at a rate of 0.01% v/v.
Thrips potency of each compound was evaluated by using a floral-immersion technique. All petals of individual, intact orchid flowers were dipped into treatment solution and allowed to dry in Petri dishes. Treated petals were placed into individual re-sealable plastic along with about 20 adult thrips. All test arenas were held under continuous light and a temperature of about 28° C. for duration of the assay. After 3 days, the numbers of live thrips were counted on each petal. The percent mortality was recorded 72 hours after treatment.

Experiment [3] relates to tobacco budworm (Heliothis virescens). The conditions noted are these: 120 h, egg and larval mortality after 5 days, read-out: mortality in comparison with untreated controls. The method, then:
For evaluating control of tobacco budworm (Heliothis virescens) the test unit consisted of 96-well-microtiter plates containing an insect diet and 15-25 H. virescens eggs.
Different concentrations of formulated compounds were sprayed onto the insect diet at 10 μl, using a custom-built micro atomizer, at two replications.
After application, microtiter plates were incubated at about 28+1° C. and about 80+5% relative humidity for 5 days. Egg and larval mortality were then visually assessed.

Experiment [4] concerns boll weevil (Anthonomus grandis). As to conditions: 120 h, egg and larval mortality after 5 days, read-out: mortality in comparison with untreated controls.
Experiment [5] deals with diamond back moth (Plutella xylostella). As to conditions: in Brassica oleracea, foliar, 3rd instar larvae, 72 hours after treatment, read-out: mortality in comparison with untreated controls. The method, then:
Surfactant (Kinetic® HV) is added at a rate of 0.01% (v/v). The test solution is prepared at the day of use.
Leaves of cabbage were dipped in test solution and air-dried. Treated leaves were placed in petri dishes lined with moist filter paper and inoculated with ten 3rd instar larvae. Mortality was recorded 72 hours after treatment. Feeding damages were also recorded using a scale of 0-100%.

Experiment [6] relates to yellow fever mosquito (Aedes aegypti). As to conditions: 48 h, larval mortality after 2 days, read-out: mortality in comparison with untreated controls. The method, then:
Example B1: Action on Yellow Fever Mosquito (Aedes aegypti)
For evaluating control of yellow fever mosquito (Aedes aegypti) the test unit consisted of 96-well-microtiter plates containing 200 μl of tap water per well and 5-15 freshly hatched A. aegypti larvae.
The active compounds or mixtures were formulated using a solution containing 75% (v/v) water and 25% (v/v) DMSO. Different concentrations of formulated compounds or mixtures were sprayed onto the insect diet at 2.5 μl, using a custom built micro atomizer, at two replications. For experimental mixtures in these tests identical volumes of both mixing partners at the desired concentrations respectively, were mixed together.
After application, microtiter plates were incubated at 28±1° C., 80±5% RH for 2 days. Larval mortality was then visually assessed.

Regarding `CC(=O)OCS/C(=N\N=C\c1ccc(-c2nn(C)c(NC(=O)c3ccc(OC(F)(F)F)cc3)c2C#N)cc1)Nc1cc(C)ccc1C(C)C` [Compound C-7, [(Z)—N′-[(E)-[4-[4-cyano-1-methyl-5-[[4-(trifluoromethoxy)benzoyl]amino]pyrazol-3-yl]phenyl]methyleneamino]-N-(2-isopropyl-5-methylphenyl)carbamimidoyl]sulfanylmethyl acetate], in experiment [1], the mortality at 300 ppm is not below 75%. Besides, the mortality at 500 ppm in experiment [2] and in experiment [5] was not below 75% throughout. In addition, the results for the mortality at 800 ppm in experiment [3], in experiment [4] and in experiment [6] were not below 75%, not below 75% and not below 50%, respectively.
For the molecule `Cc1ccc(C(C)C)c(N/C(=N/N=C/c2ccc(-c3nn(C)c(NC(=O)c4ccc(OC(F)(F)F)cc4)c3C#N)cc2)SCOC(=O)C(C)C)c1` [Compound C-8, [(Z)—N′-[(E)-[4-[4-cyano-1-methyl-5-[[4-(trifluoromethoxy)benzoyl]amino]pyrazol-3-yl]phenyl]methyleneamino]-N-(2-isopropyl-5-methylphenyl)carbamimidoyl]sulfanylmethyl 2-methylpropanoate], in experiment [1], the mortality at 300 ppm is not below 75%. The mortality at 500 ppm in experiment [2] and in experiment [5] was not below 75% in each case. The values for the mortality at 800 ppm in experiment [3], in experiment [4] and in experiment [6] were not below 75%, not below 75% and not below 50%, respectively.
